# Measured values: publication doi:10.1101/2025.11.04.686469, “Discovery of Host-Directed Small Molecules with Broad Anti-Leishmanial Efficacy” (bioRxiv, 2025)
# pIC50: −log10 of the molar value. Where two headings read alike, the source gives them in different places.
# Experiments:
# [1] = tested on: intracellular L. donovani amastigotes; test: Luminescent-based evaluation of intracellular anti-leishmanial activity in THP-1 macrophages; type: cell-based, Leishmania donovani; conditions: for Selectivity 24h LC50 / Lum IC50: host-directed effect vs cytotoxicity
# In short: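 PMA-differentiated THP-1 macrophages (150 nM, 72 h) were infected 18 h with firefly luciferase-expressing L. donovani LV82 promastigotes, then washed. Infected cells were treated with compounds at 0.1-10 μM for 72 h. Surviving intracellular amastigotes were quantified by firefly luciferase luminescence after cell lysis and 10 min substrate incubation at room temperature.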
# THP-1 macrophages = test: Effect of compounds on host cell viability (MTT); type: cell-based
# In short: (§1)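 THP-1 cells were differentiated with 150 nM PMA for 72 h, then exposed to compounds at 1–50 μM for 24 h; selected compounds were also run at 1–300 μM for 72 h. MTT at 0.5 mg/mL was added for 2 h at 37 °C, and formazan absorbance was read at 560 nm minus 670 nm.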
# [2] = tested on: intracellular L. donovani amastigotes; test: Image-based (Giemsa staining) evaluation of intracellular anti-leishmanial activity in bone marrow derived macrophages; type: cell-based, Leishmania donovani
# Experimental: Bone marrow derived macrophages (BMDMs) were isolated from BALB/c mice and cultured as previously described. […] Completely differentiated BMDMs are obtained after 7 days of culture with media change every 2 days. Harvested cells were seeded onto 10 mm glass cover slips at 5 x 10^5 cells/ well of a 24 well plate in DMEM media (without LCM) and allowed to adhere overnight. […] After infection, cells were washed three times with fresh media to remove extracellular promastigotes and treated with compounds for a 72-hour incubation. BMDM cells were then washed with phosphate buffered saline, fixed with ice-cold methanol, and stained with Giemsa (5% v/v in water). The cover slips with stained cells are mounted onto glass slides and imaged on EVOS XL (100X, Thermo Fisher Scientific). Leishmania amastigotes per 100 macrophages were determined in a blinded manner.
# [3] = tested on: extracellular L. donovani promastigotes; test: Effect of compounds on promastigote viability (resazurin assay); type: cell-based, Leishmania donovani; conditions: for MIC50: 72-hour incubation
# Experimental: (§2) The effect of compounds on extracellular promastigotes was evaluated using a resazurin-based assay as described previously. In short, late log phase Leishmania promastigotes were seeded in a 96 well plate at 1 x 10^5 parasites per well and treated with drugs (0.5 – 200 μM) for 72 hours at 25°C. Ten microliters of resazurin (0.02% w/v) were added to the treated parasites to achieve a final concentration of 0.002% w/v and incubated for 24 hours. Viability of the promastigotes was assessed by fluorescence (excitation 544 nm, emission 590 nm, SpectraMax M2, Molecular Devices).
# [4] = tested on: intracellular L. donovani in WT and Lys K/O BMDMs; test: 197 target validation: Giemsa staining in BMDMs from wild-type and lysozyme knockout mice; type: cell-based, Leishmania donovani; conditions: WT vs Lys K/O BMDMs
# From the text: B6.129P2-Lyz2^tm1(cre)Ifo/J mice[23] (stock #004781, herein termed ‘Lys K/O’) were obtained from Jackson Laboratory. This strain has a nuclear-localized Cre recombinase inserted into the first coding ATG of the lysozyme 2 gene (Lyz2) which eliminates endogenous Lyz2 gene function. Wildtype C57BL6/J mice (stock #000664) were obtained as a control.
# Bone marrow derived macrophages (BMDMs) were isolated from both mice and cultured as described above in “Image-based Evaluation of Intracellular Anti-Leishmanial Activity”. BMDMs were seeded onto glass cover slips, infected with LV82 L. donovani at a multiplicity of infection of 1:10. Cells were washed to remove extracellular promastigotes and treated with compounds (197, amphotericin B) for a 72-hour incubation. BMDM cells were then washed with phosphate buffered saline, fixed with ice-cold methanol, and stained with Giemsa (5% v/v in water). The cover slips with stained cells are mounted onto glass slides and imaged on EVOS XL (100X, Thermo Fisher Scientific). Leishmania amastigotes per 100 macrophages were determined in a blinded manner.
# [5] = tested on: extracellular L. mexicana promastigotes; test: Effect of compounds on promastigote viability (resazurin assay); type: cell-based, Leishmania mexicana; conditions: Leishmania mexicana, 72-hour incubation
# Experimental: as §2
# [6] = tested on: intracellular L. mexicana amastigotes; test: microbe, parasite or virus in culture; type: cell-based, Leishmania mexicana; conditions: Leishmania mexicana, Macrophage, bone marrow derived macrophages, Giemsa staining
# Experimental: Bone marrow derived macrophages (BMDMs) were isolated from BALB/c mice and cultured as previously described. Briefly, bone marrow was harvested from long bones of mice and the isolated cells were seeded at a concentration of 2 x 10^6 cells/mL in petri dishes with RPMI media supplemented with 10% FBS, 1% Penn-Strep and 10% L929 conditioned media (LCM). Completely differentiated BMDMs are obtained after 7 days of culture with media change every 2 days. Harvested cells were seeded onto 10 mm glass cover slips at 5 x 10^5 cells/ well of a 24 well plate in DMEM media (without LCM) and allowed to adhere overnight. BMDM cells are then infected overnight with LV82 L. donovani or L. mexicana (NR-51210) at a multiplicity of infection of 10. After infection, cells were washed three times with fresh media to remove extracellular promastigotes and treated with compounds for a 72-hour incubation. BMDM cells were then washed with phosphate buffered saline, fixed with ice-cold methanol, and stained with Giemsa (5% v/v in water). The cover slips with stained cells are mounted onto glass slides and imaged on EVOS XL (100X, Thermo Fisher Scientific). Leishmania amastigotes per 100 macrophages were determined in a blinded manner.
# [7] = Effect of compounds on host cell viability (MTT); type: cell-based; conditions: human
# In short: as §1
# [8] = THP1 macrophages, luminescence assay, 72 hours of treatment, read-out: Intracellular L. donovani amastigotes Lum IC50
# [9] = THP-1 macrophages, 72-hour incubation, MTT assay, read-out: 72 hr viability of THP-1 macrophages LC50
# [10] = read-out: 24 hr viability of THP-1 macrophages 24h LC50, THP-1 macrophages, 24-hour incubation, MTT assay
# [11] = Giemsa staining, 72-hour incubation, read-out: Intracellular L. donovani amastigotes IC50
# [12] = resazurin assay, read-out: Extracellular L. donovani promastigotes MIC50
# [13] = Leishmania donovani, Macrophage, 72 h, Giemsa staining, 72-hour incubation, read-out: Intracellular L. donovani amastigotes IC50
# [14] = Leishmania donovani, Macrophage, Giemsa staining (Table 3), read-out: L. donovani Intracellular amastigotes IC50
# [15] = Leishmania donovani, resazurin assay (Table 3), read-out: L. donovani Extracellular promastigotes MIC50
# [16] = Leishmania donovani, resazurin assay, read-out: Extracellular L. donovani promastigotes MIC50
# [17] = Leishmania donovani, THP-1, THP1 macrophages, luminescence assay, 72 hours of treatment, read-out: Intracellular L. donovani amastigotes Lum IC50
# [18] = intracellular Leishmania donovani in THP1 macrophages, luminescence assay (Supplemental Table 2), read-out: Lum IC50
# [19] = read-out: 24h LC50, THP1 macrophages, 24-hour incubation, MTT assay (Supplemental Table 2)
Structure (SMILES),"pIC50 [1, 8]",CC50 (THP-1 macrophages; [9]),CC50 (THP-1 macrophages; [10]),"pIC50 [2, 11]","MIC50 [3, 12]",other results
Nc1ccc(CNC2CCN(c3ccc(-n4nc(C(F)(F)F)cc4-c4ccc(-c5ccc(C(F)(F)F)cc5)cc4)cc3)C2)cc1 (stereo not drawn) [Compound 23],6.40,6.9 µM,5.8 µM,6.05,4.0 µM,–
FC(F)(F)c1ccc(-c2ccc(-c3cc(C(F)(F)F)nn3-c3ccc(NC4CCNC4)cc3)cc2)cc1 (stereo not drawn) [Compound 25],6.15,6.3 µM,28.9 µM,5.60,2.1 µM,–
O=C(Nc1ccc(-n2cc(C(F)(F)F)nc2-c2ccc(-c3ccccc3)cc2)cc1)C1CCN(Cc2ccccc2)C1 (stereo not drawn) [Compound 86],5.85,8.2 µM,21.9 µM,6.22,3.2 µM,–
"C[C@@H]1[C@H](O)[C@@H](C)/C=C/C=C/C=C/C=C/C=C/C=C/C=C/[C@H](O[C@@H]2O[C@H](C)[C@@H](O)[C@H](N)[C@@H]2O)C[C@@H]2O[C@](O)(C[C@@H](O)C[C@@H](O)[C@H](O)CC[C@@H](O)C[C@@H](O)CC(=O)O[C@H]1C)C[C@H](O)[C@H]2C(=O)O [Amphotericin B, reference compound]",–,–,–,–,–,anti-leishmanial activity in Lys K/O BMDMs [4]: retained its anti-leishmanial activity
CC(C)(C)OC(=O)NC1CCN(c2ccc(-n3nncc3-c3ccc(C(F)(F)F)cc3)cc2)C1 (stereo not drawn) [Compound 133],6.05,33.9 µM,29 µM,5.77,13.0 µM,–
N[C@@H]1CCN(c2ccc(-n3nc(C(F)(F)F)cc3-c3ccc(-c4ccc(C(F)(F)F)cc4)cc3)cc2)C1 [Compound 129],7.00,6.2 µM,6.3 µM,6.40,1.7 µM,–
Oc1ccc(CNC2CCN(c3ccc(-n4nc(C(F)(F)F)cc4C4CCCCC4)cc3)CC2)cc1 [Compound 319],6.10,7.2 µM,6.4 µM,5.47,0.8 µM,–
CC(C)(C)C#Cc1ccc(-c2cc(C(F)(F)F)nn2-c2ccc(N3CCNCC3)cc2)cc1.Cl [Compound 44],6.05,14.5 µM,7.4 µM,6.00,1.9 µM,–
N[C@H]1CCN(c2ccc(-n3nc(C(F)(F)F)cc3-c3ccc(-c4ccc(C(F)(F)F)cc4)cc3)cc2)C1 [Compound 130],6.70,6.4 µM,4.2 µM,5.80,2.1 µM,–
Oc1ccccc1CN1CCC(Nc2ccc(-n3nc(C(F)(F)F)cc3-c3ccc(-c4ccc(C(F)(F)F)cc4)cc3)cc2)C1 (stereo not drawn) [Compound 91],5.85,53.4 µM,> 50 µM,5.62,56.3 µM,–
"NCC(=O)Nc1ccc(-n2nc(C(F)(F)F)cc2-c2ccc3c(ccc4ccccc43)c2)cc1 [AR-12, reference compound]",–,–,–,–,–,"MIC50 [5]: 15.1 µM; pIC50 [6]: 5.82; CC50 at 24 h [7]: 13.3 µM; CC50 at 72 h [7]: 8.6 µM; pIC50 [2, 13]: 5.66; pIC50 [2, 14]: 5.66; MIC50 [3, 15]: 2.2 µM; MIC50 [3, 16]: 2.2 µM"
FC(F)(F)c1ccc(-c2nc(C(F)(F)F)cn2-c2ccc(NC3CCNCC3)cc2)cc1 [Compound 408],5.82,25.1 µM,25.4 µM,5.59,0.9 µM,–
N#Cc1cccc(CN2CCC(Nc3ccc(-n4nc(C(F)(F)F)cc4-c4ccc(-c5ccc(C(F)(F)F)cc5)cc4)cc3)C2)c1 (stereo not drawn) [Compound 53],–,–,–,–,–,"MIC50 [5]: > 200 µM; pIC50 [1, 17]: 6.40; Selectivity 24h LC50 / Lum IC50 [1]: >112.6; CC50 at 24 h [7]: > 50 µM; CC50 at 72 h [7]: > 300 µM; CC50 (THP-1 macrophages): > 300 µM; reduction in macrophage viability (THP-1 macrophages; 72hr incubation up to 300μM): Neither compound had any reduction; pIC50 [2, 13]: 5.96; pIC50 [2, 14]: > 5.70; MIC50 [3, 15]: > 200 µM; MIC50 [3, 16]: > 200 µM; direct effect on extracellular promastigote viability ([3]; resazurin assay, strain not named for 53, L. donovani for 197): no direct effects"
N#Cc1ccc(CNCC(=O)Nc2ccc(-n3nc(C(F)(F)F)cc3C3CCCCC3)cc2)cc1 [Compound 354],–,–,–,–,–,"MIC50 [5]: 30.7 µM; pIC50 [6]: 5.46; pIC50 [1, 17]: 6.30; Selectivity 24h LC50 / Lum IC50 [1]: 44.9; CC50 at 24 h [7]: 22 µM; CC50 at 72 h [7]: 20.2 µM; pIC50 [2, 13]: 6.40; pIC50 [2, 14]: 6.40; MIC50 [3, 15]: 22.1 µM; MIC50 [3, 16]: 22.1 µM"
C#CCCCC(=O)NC1CCN(c2ccc(-n3nc(C(F)(F)F)cc3-c3ccc(-c4ccc(C(F)(F)F)cc4)cc3)cc2)CC1 [Compound 92],–,–,–,–,–,"pIC50 [1, 18]: < 5.00; CC50 (THP-1 macrophages; [19]): 14.7 µM"
NCC(=O)Nc1ccc(-n2cc(C(F)(F)F)nc2-c2ccc(-c3ccccc3)cc2)cc1 [Compound 50],5.82,42.7 µM,23.5 µM,5.04,14.6 µM,–
Cc1ccc(-n2nc(C(F)(F)F)cc2-c2ccc(-c3ccc(C(F)(F)F)cc3)cc2)c(C)c1 [Compound 185],–,–,–,–,–,"pIC50 [1, 18]: < 5.00; CC50 (THP-1 macrophages; [19]): > 50 µM"
FC(F)(F)c1ccc(-c2ccc(-c3cc(C(F)(F)F)nn3-c3ccc(NC4CN(Cc5ccccc5)C4)cc3)cc2)cc1 [Compound 113],–,–,–,–,–,"pIC50 [1, 18]: < 5.00; CC50 (THP-1 macrophages; [19]): 19 µM"
NC1CCN(c2ccc(-n3nc(C(F)F)cc3-c3ccc(-c4ccc(C(F)(F)F)cc4)cc3)cc2)C1 (stereo not drawn) [Compound 281],–,–,–,–,–,"pIC50 [1, 18]: 5.70; CC50 (THP-1 macrophages; [19]): 14.3 µM"
CN(C)c1ccc(-c2cc(C(F)(F)F)nn2-c2ccc(N3CCC(N)C3)cc2)cc1 (stereo not drawn) [Compound 231],–,–,–,–,–,"pIC50 [1, 18]: 5.74; CC50 (THP-1 macrophages; [19]): 10.8 µM"
